For data set [1], the target named is Sodium-dependent noradrenaline transporter (Homo sapiens, UniProt P23975). Description: DRUGMATRIX: Norepinephrine Transporter radioligand binding (ligand: [125I] RTI-55). In kind it is cell membranes, MDCK, Membrane. The settings on record: Not Active = under 50% inhibition at 10 µM; for IC50: mdck.
The target of data set [2] is Cytochrome P450 2C19 (Homo sapiens, UniProt P33261). The settings on record: bti-tn-5b1-4. Note: in other assays of this panel Not Active means under 50% inhibition at 10 µM.
Cytochrome P450 2C19, sequence (P33261 whole entry): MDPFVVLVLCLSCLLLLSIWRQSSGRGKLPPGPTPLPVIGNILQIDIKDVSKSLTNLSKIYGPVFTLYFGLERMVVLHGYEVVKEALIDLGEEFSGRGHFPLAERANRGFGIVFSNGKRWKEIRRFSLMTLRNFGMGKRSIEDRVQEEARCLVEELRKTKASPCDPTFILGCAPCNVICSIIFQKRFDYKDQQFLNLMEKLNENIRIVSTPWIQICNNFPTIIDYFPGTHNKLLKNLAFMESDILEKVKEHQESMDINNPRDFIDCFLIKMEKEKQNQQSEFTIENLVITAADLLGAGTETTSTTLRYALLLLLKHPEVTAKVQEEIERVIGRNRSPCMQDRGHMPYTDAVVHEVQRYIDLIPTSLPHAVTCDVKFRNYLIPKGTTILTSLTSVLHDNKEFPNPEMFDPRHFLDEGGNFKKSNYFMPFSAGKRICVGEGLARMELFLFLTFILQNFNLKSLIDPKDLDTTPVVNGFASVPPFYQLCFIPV
Data set [3] addresses Beta-3 adrenergic receptor (Homo sapiens, UniProt P13945). Kind of data set: DRUGMATRIX: Adrenergic beta3 radioligand binding (ligand: [125I] Cyanopindolol). In kind it is cell membranes, HEK293, Membrane. The settings on record: hek293; Not Active = under 50% inhibition at 10 µM.
Data set [4] has as its target Substance-P receptor (Homo sapiens, UniProt P25103). The data set is classed as cell membranes, CHO, Membrane. The settings on record: cho. Note: in other assays of this panel Not Active means under 50% inhibition at 10 µM.
Data set [5] can be described thus: DRUGMATRIX: Calcium Channel Type L, Benzothiazepine radioligand binding (ligand: [3H] Diltiazem). In kind it is cell membranes, Rattus norvegicus, Wistar, Brain, Membrane. The following applies: Not Active = under 50% inhibition at 10 µM.
The target of data set [6] is T1, Nitric oxide synthase, inducible (Mus musculus, UniProt P29477).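 Note: inhibition of iNOS enzyme activity measured with L-arginine as substrate; in other assays of this panel Not Active means under 50% inhibition at 10 µM.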
T1 sequence (P29477 whole entry): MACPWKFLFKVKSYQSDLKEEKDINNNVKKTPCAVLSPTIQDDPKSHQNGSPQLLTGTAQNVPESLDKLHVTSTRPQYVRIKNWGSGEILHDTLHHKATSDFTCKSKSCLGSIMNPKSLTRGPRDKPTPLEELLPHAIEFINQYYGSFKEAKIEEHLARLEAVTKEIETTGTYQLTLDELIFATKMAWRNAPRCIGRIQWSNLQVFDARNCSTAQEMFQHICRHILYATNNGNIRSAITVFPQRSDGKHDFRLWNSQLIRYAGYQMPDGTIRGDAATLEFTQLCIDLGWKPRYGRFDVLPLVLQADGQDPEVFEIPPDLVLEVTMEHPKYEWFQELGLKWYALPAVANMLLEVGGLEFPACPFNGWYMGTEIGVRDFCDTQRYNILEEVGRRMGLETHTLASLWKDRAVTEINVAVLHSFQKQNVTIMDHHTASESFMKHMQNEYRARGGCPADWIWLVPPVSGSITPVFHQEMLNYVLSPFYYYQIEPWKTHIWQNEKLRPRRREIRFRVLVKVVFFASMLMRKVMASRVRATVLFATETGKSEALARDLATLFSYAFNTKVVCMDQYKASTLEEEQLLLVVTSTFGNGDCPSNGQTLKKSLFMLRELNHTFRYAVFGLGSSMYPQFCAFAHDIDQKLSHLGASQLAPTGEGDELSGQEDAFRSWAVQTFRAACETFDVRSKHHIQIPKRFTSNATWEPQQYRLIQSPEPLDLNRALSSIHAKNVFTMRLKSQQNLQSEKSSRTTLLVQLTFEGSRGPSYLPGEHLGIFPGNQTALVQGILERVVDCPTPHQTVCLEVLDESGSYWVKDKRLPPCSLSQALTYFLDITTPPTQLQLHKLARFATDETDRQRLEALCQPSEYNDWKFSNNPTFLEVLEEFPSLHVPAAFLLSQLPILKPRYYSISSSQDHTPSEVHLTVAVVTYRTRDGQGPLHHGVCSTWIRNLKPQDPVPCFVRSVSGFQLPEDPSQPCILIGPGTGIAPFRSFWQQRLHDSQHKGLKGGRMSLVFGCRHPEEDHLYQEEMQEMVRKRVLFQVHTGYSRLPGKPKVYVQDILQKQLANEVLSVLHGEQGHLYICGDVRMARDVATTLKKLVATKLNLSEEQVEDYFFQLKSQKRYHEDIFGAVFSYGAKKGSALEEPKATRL
Further details: species or system Escherichia coli.

Data set [7] in a line: DRUGMATRIX: beta-Lactamase enzyme inhibition (substrate: Nitrocefin). Further details: species or system Bacillus cereus. The settings on record: Not Active = under 50% inhibition at 10 µM.

pIC50, pKi: −log10 of the molar value.

Sodium-dependent noradrenaline transporter, sequence (P23975 whole entry): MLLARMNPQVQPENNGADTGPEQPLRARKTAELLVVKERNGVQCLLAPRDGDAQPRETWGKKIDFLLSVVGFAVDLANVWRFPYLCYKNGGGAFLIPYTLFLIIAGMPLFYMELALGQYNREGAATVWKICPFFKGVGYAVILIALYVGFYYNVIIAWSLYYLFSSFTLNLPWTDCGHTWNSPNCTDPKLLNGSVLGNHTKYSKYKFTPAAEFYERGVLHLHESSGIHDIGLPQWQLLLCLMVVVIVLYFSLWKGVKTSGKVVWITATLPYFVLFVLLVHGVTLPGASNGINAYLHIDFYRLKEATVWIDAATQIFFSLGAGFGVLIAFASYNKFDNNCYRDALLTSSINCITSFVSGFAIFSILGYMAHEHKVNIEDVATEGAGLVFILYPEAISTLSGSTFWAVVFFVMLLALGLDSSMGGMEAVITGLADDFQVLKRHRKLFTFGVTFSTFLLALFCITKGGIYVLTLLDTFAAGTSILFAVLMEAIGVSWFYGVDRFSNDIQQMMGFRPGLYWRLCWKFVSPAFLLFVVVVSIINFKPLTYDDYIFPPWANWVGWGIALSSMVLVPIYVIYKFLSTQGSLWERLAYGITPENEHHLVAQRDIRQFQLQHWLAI
Beta-3 adrenergic receptor, sequence (P13945 whole entry): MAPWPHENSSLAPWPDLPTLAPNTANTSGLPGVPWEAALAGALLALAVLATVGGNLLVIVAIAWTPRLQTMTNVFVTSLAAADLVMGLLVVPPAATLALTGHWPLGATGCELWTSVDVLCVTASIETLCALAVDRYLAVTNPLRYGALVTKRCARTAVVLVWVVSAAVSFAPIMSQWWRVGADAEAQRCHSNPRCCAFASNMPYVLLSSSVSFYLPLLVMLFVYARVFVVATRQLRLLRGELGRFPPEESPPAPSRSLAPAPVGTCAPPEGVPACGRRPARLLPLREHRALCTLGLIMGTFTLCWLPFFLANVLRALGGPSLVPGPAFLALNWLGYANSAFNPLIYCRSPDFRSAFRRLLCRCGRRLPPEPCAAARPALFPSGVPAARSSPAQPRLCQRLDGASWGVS
Substance-P receptor, sequence (P25103 whole entry): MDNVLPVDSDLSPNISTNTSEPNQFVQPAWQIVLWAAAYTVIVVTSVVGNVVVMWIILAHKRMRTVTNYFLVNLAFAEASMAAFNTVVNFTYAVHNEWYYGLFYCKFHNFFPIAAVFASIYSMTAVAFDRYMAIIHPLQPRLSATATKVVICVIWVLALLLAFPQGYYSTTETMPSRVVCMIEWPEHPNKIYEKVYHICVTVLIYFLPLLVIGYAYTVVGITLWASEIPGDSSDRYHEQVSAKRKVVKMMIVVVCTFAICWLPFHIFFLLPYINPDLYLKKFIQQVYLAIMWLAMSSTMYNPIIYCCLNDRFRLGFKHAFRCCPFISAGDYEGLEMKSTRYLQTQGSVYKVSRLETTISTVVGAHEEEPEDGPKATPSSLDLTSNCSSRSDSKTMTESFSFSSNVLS

For `O=C/C=C/c1ccccc1`, the IC50 entry in data set [1], in data set [2], in data set [3], in data set [4], in data set [5] and in data set [6] was “Not Active” in each case. Further, the IC50 result in data set [7] was “Not Active”. The Ki entry in data set [2], in data set [5] and in data set [7] was “Not Active” each time.
Turning to `Nc1ccc2c3c(cccc13)C(=O)NC2=O`, the IC50 entry in data set [1], in data set [2], in data set [3], in data set [4], in data set [5] and in data set [6] was “Not Active” throughout. In addition, the IC50 entry in data set [7] is reported as “Not Active”. The Ki result in data set [2], in data set [5] and in data set [7] was “Not Active” in each case.
As for `O=c1cnn([C@@H]2O[C@H](CO)[C@@H](O)[C@H]2O)c(=O)[nH]1` [6-AZAURIDINE], the IC50 entry in data set [1], in data set [2], in data set [3], in data set [4], in data set [5] and in data set [6] was “Not Active” throughout. Besides, the IC50 entry in data set [7] is given as “Not Active”. For the same molecule, the Ki entry in data set [2], in data set [5] and in data set [7] was “Not Active” in each case.
With `CC[C@H](C)[C@H]1O[C@]2(C=C[C@@H]1C)C[C@@H]1C[C@@H](C/C=C(\C)[C@@H](O[C@H]3C[C@H](OC)[C@@H](O[C@H]4C[C@H](OC)[C@@H](O)[C@H](C)O4)[C@H](C)O3)[C@@H](C)/C=C/C=C3\CO[C@@H]4[C@H](O)C(C)=C[C@@H](C(=O)O1)[C@]34O)O2.CO[C@H]1C[C@H](O[C@H]2[C@H](C)O[C@@H](O[C@@H]3/C(C)=C/C[C@@H]4C[C@@H](C[C@]5(C=C[C@H](C)[C@@H](C(C)C)O5)O4)OC(=O)[C@@H]4C=C(C)[C@@H](O)[C@H]5OC/C(=C\C=C\[C@@H]3C)[C@]54O)C[C@@H]2OC)O[C@@H](C)[C@@H]1O` [ABAMECTIN], the IC50 result in data set [1], in data set [2], in data set [3], in data set [4], in data set [5] and in data set [6] was “Not Active” in each case. In addition, the IC50 result in data set [7] was “Not Active”. Also, the Ki result in data set [2], in data set [5] and in data set [7] was “Not Active” each time.
With `Cc1nnc2n1-c1ccc(Cl)cc1C(c1ccccc1)=NC2` [ALPRAZOLAM], the IC50 result in data set [1], in data set [2], in data set [3], in data set [4], in data set [5] and in data set [6] was “Not Active” each time. The IC50 result in data set [7] is “Not Active”. Besides, the Ki entry in data set [2], in data set [5] and in data set [7] was “Not Active” throughout.
Take `Cn1c(=O)c2[nH]cnc2n(C)c1=O.Cn1c(=O)c2[nH]cnc2n(C)c1=O.NCCN` [AMINOPHYLLINE]: the IC50 result in data set [1], in data set [2], in data set [3], in data set [4], in data set [5] and in data set [6] was “Not Active” in each case. In addition, the IC50 entry in data set [7] is given as “Not Active”. For the same molecule, the Ki entry in data set [2], in data set [5] and in data set [7] was “Not Active” in each case.
Consider `CCC1(CCC(C)C)C(=O)NC(=O)NC1=O` [AMOBARBITAL], for which the IC50 entry in data set [1], in data set [2], in data set [3], in data set [4], in data set [5] and in data set [6] was “Not Active” throughout. For the same molecule, in data set [7], the IC50 result is listed as “Not Active”. The Ki entry in data set [2], in data set [5] and in data set [7] was “Not Active” throughout.
With `COc1ccc(C2C(=O)c3ccccc3C2=O)cc1` [ANISINDIONE], the IC50 result in data set [1], in data set [2], in data set [3], in data set [4], in data set [5] and in data set [6] was “Not Active” each time. Moreover, the IC50 entry in data set [7] is given as “Not Active”. The Ki entry in data set [2], in data set [5] and in data set [7] was “Not Active” each time.
In the case of `O=C1O[C@H]([C@@H](O)CO)C(O)=C1O` [ASCORBIC ACID], the IC50 result in data set [1], in data set [2], in data set [3], in data set [4], in data set [5] and in data set [6] was “Not Active” in each case. In addition, the IC50 result in data set [7] is recorded as “Not Active”. In addition, the Ki result in data set [2], in data set [5] and in data set [7] was “Not Active” in each case.
On to `CC(C(=O)O)c1ccc2oc(-c3ccc(Cl)cc3)nc2c1` (stereo not given) [BENOXAPROFEN], for which the IC50 result in data set [1], in data set [2], in data set [3], in data set [4], in data set [5] and in data set [6] was “Not Active” in each case. In addition, in data set [7], the IC50 result is listed as “Not Active”. For the same molecule, the Ki result in data set [2], in data set [5] and in data set [7] was “Not Active” each time.
`COc1ccc2cc3[n+](cc2c1OC)CCc1cc2c(cc1-3)OCO2.[Cl-]` [BERBERINE CHLORIDE]: the IC50 result in data set [1], in data set [2], in data set [3], in data set [4], in data set [5] and in data set [6] was “Not Active” throughout. Moreover, in data set [7], the IC50 entry is “Not Active”. Also, the Ki entry in data set [2], in data set [5] and in data set [7] was “Not Active” throughout.
As for `O=C(O)CCNC(=O)c1ccccc1` [BETAMIPRON], the IC50 result in data set [1], in data set [2], in data set [3], in data set [4], in data set [5] and in data set [6] was “Not Active” in each case. The IC50 result in data set [7] was “Not Active”. Moreover, the Ki entry in data set [2], in data set [5] and in data set [7] was “Not Active” throughout.
With `CC(=O)Oc1ccc(C(c2ccc(OC(C)=O)cc2)c2ccccn2)cc1` [BISACODYL], the IC50 entry in data set [1], in data set [2], in data set [3], in data set [4], in data set [5] and in data set [6] was “Not Active” in each case. The IC50 entry in data set [7] is recorded as “Not Active”. The Ki entry in data set [2], in data set [5] and in data set [7] was “Not Active” throughout.
Consider `O=C(N/N=C/c1ccc([N+](=O)[O-])o1)c1cc([N+](=O)[O-])cc([N+](=O)[O-])c1O` [NIFURSOL], for which the IC50 entry in data set [1], in data set [3], in data set [4], in data set [5], in data set [6] and in data set [7] was “Not Active” throughout. Further, the Ki entry in data set [5] and in data set [7] was “Not Active” throughout.
With `CC(=O)O[C@H]1C(=O)[C@@]2(C)[C@H]([C@H](OC(=O)c3ccccc3)[C@]3(O)C[C@H](OC(=O)[C@H](O)[C@@H](NC(=O)c4ccccc4)c4ccccc4)C(C)=C1C3(C)C)[C@]1(OC(C)=O)CO[C@@H]1C[C@@H]2O` [PACLITAXEL], the IC50 result in data set [1], in data set [3], in data set [4], in data set [5], in data set [6] and in data set [7] was “Not Active” each time. Besides, the Ki result in data set [5] and in data set [7] was “Not Active” in each case.
For the molecule `CC(C)c1cccc(C(C)C)c1O` [PROPOFOL], the pIC50 in data set [1] (read-out: IC50) is 5.03. Further, in data set [1] (read-out: Ki), the pKi was 5.03. The IC50 result in data set [3], in data set [4], in data set [5], in data set [6] and in data set [7] was “Not Active” in each case. In addition, the Ki entry in data set [5] and in data set [7] was “Not Active” each time.

For orientation: pIC50 means the negative decadic logarithm of the IC50, by convention in mol/L. The term pKi denotes the negative decadic logarithm of the Ki, by convention in mol/L.

Values taken from ChEMBL document CHEMBL1909046, “DrugMatrix in vitro pharmacology data”.
